Values after ≈ are worked out from the molar mass of the structure shown. Active and inactive are the calls of the source. The rule behind the calls is not given here.

Three molecules from ChEMBL document CHEMBL1159034, “Emodin, a protein tyrosine kinase inhibitor from Polygonum cuspidatum” (J Nat Prod, 1992) can be followed below.

Assay [1] in a line: Inhibition of bovine thymus p56 LCK activity. Set-up: species or system Bos taurus.
The nature of assay [2]: Inhibition of bovine thymus p56 LCK activity by competitive inhibition assay. Set-up: species or system Bos taurus.
Another assay is filed under the species Bos taurus. Kind of assay: Inhibition of bovine thymus p56 LCK activity by noncompetitive inhibition assay.

As for `Cc1cc(O)c2c(c1)C(=O)c1cc(O)cc(O[C@@H]3O[C@H](CO)[C@@H](O)[C@H](O)[C@H]3O)c1C2=O` [EMODIN 8-O-BETA-D-GLUCOPYRANOSIDE], in assay [1], the IC50 – broadly, the concentration needed to halve the response being measured – was > 800 µg/mL.
Consider `Cc1cc(O)c2c(c1)C(=O)c1cc(O)cc(O)c1C2=O` [EMODIN], for which the Ki (as a rule, a measure of affinity in units of concentration, obtained from inhibition or displacement) in assay [2] was 13 µM. In assay [1], this molecule displayed a concentration for half-maximal inhibition (IC50) of 5 µg/mL (≈ 18.5 µM). The result in the assay filed under Bos taurus was Active.
Take `COc1cc(O)c2c(c1)C(=O)c1cc(C)cc(O)c1C2=O` [PHYSCION]: the IC50 in assay [1] was > 800 µg/mL.
